In PMC6859807 (Journal of Experimental Botany, 2019):
Residues, ends and D or L forms follow the SMILES beside them. *: point of attachment. AMC = Cc1cc(=O)oc2cc(N*)ccc12; Cbz = O=C(OCc1ccccc1)*

Molecular target: recombinant HvPAP14 (HvPAP14:MBP) (Hordeum vulgare, UniProt B4ESF2)
Experiment: fluorogenic cleavage, ratio of […] nm / […] nm emission
Assay type: biochemical
Details: 20 uM substrate, pH 3.5-9; enzyme activated at pH 4.5

recombinant HvPAP14 (HvPAP14:MBP), sequence (B4ESF2 30-367): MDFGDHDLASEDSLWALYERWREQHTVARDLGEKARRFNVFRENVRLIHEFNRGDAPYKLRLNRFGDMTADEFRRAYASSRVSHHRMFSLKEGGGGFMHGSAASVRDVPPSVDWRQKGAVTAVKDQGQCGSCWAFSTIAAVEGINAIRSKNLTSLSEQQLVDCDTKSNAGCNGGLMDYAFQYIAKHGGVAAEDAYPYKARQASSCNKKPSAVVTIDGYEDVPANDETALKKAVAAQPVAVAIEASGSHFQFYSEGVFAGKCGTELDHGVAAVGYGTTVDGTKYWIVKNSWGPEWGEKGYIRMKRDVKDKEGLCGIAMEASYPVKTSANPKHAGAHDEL

SMILES: Cc1cc(=O)oc2cc(NC(=O)[C@H](CCCNC(=N)N)NC(=O)[C@H](Cc3ccccc3)NC(=O)OCc3ccccc3)ccc12 [Z-FR-AMC] (Cbz-Phe-Arg-{AMC})
- fluorogenic cleavage, ratio of 440 nm / 393 nm emission: activity of the recombinant protein was therefore tested at different pH values using the fluorescent
